# Experimental data published in patent US8575188B2 (priority 2009, dated 2013).
# Where two headings read alike, the source gives them in different places.
# Experiments:
# [1] = tested on: human non small cell lung cancer cell line H460; assay: Antiproliferation (cytotoxicity) assay, 72 hrs under air, Alamar Blue; type: cell-based
# [2] = tested on: BCRP, which over expressed the breast cancer resistance protein; assay: Efflux pump drug resistance, antiproliferation assay, BCRP over expressing line
# Description: (§1) The compounds were screened for cytotoxicity using human non small cell lung cancer cell line H460. […]
# (§2) Cellular drug resistance was determined using the antiproliferation assay described above.
# [3] = In vivo pharmacokinetics, oral gavage; conditions: CD-mice, oral gavage
# Description: The data normalized to a 50 mg/kg dose are shown below (compounds were dosed at either 25 or 50 mg/kg).
# [4] = tested on: Messa ovarian carcinoma cell line; assay: Efflux pump drug resistance, antiproliferation assay, parent line; type: cell-based; conditions: Homo sapiens, MES-SA, 72 h, air, 3 days; read-out: Air 3d MESSA prol. IC50
# Description: […] Cells were treated with test compounds at various concentrations under air for 72 hrs, and then cell viability and proliferation were assessed by Alamar Blue staining.
# as §2
# [5] = tested on: DX5, which over expresses the MDR 1 efflux pump; assay: Efflux pump drug resistance, antiproliferation assay, MDR 1 over expressing line; type: cell-based; conditions: MDR1, 72 h, air, 3 days; read-out: Air 3d DX5 prol. IC50
# Description: as §1, §2
# pcDNA = assay: Efflux pump drug resistance, antiproliferation assay, parent line; type: cell-based; conditions: 72 h, air, 3 days; read-out: Air 3d pcDNA prol. IC50
# Description: as §1, §2
# [6] = tested on: human non small cell lung cancer H-460; assay: Xenograft model, subcutaneous, tumor growth inhibition and body weight loss
# Description: The first three models were produced by subcutaneous implantation of the appropriate number of cells into the flank of the animals. When tumor size was approximately 150 mm^3, animals were randomized into groups of 10 mice each for dosing. One arm was dosed with only vehicle and the results used for the efficacy calculations. […] TGI=(1−T/C) %. T/C ratio was calculated as T/C=(Tn−Ti)/(Cn−Ci), where Tn is tumor volume in treatment group on Day n, and Ti is the initial tumor volume in the treatment group. Cn is the tumor volume of the vehicle group on the last day of measurement. Ci is the initial tumor volume in the vehicle control group. Day n is the last measurement taken when all the animals in the vehicle group were not yet euthanized. Animals were euthanized when tumor volumes grew larger than 2000 mm^3.
# [7] = Homo sapiens, NCI-H460, H460, inhibition of proliferation, 72 hrs under air, read-out: IC50
SMILES,"IC50 [1, 7]",other results
"CC[C@@]1(O)C(=O)OCc2c1cc1n(c2=O)Cc2cc3ccccc3nc2-1 [Camptothecin, reference compound]",–,"IC50 ([1]; H460, inhibition of proliferation, 72 hrs under air, read-out: IC50): 14 nM; ratio BCRP over expressing line versus the parent cell line ([2]; ratio of IC50s, BCRP versus pcDNA): 1.6; half-life [3]: 1.98 h; Cmax ([3]; 5% DMSO, 5% Tween 80 suspension in water, normalized to a 50 mg/kg dose): 374 ng/mL; AUC ([3]; normalized to a 50 mg/kg dose): 58.1 µg·min/mL"
CC[C@@]1(O)C(=O)OCc2c1c([N+](=O)[O-])c1n(c2=O)Cc2c-1nc1ccccc1c2CO [TH1333],> 1000 nM,"IC50 [4]: 15000 nM; IC50 [5]: 34000 nM; IC50 (pcDNA): 3900 nM; IC50 ([2]; 72 h, read-out: Air 3d BCRP prol. IC50 nM, air, 3 days): 7800 nM; 3d BCRP/pcDNA ([2]; ratio of IC50s, BCRP over expressing versus parent line, 3 days): 2"
CC[C@@]1(O)C(=O)OCc2c1c([N+](=O)[O-])c1n(c2=O)Cc2cc3c([N+](=O)[O-])cccc3nc2-1 [TH1385],> 1000 nM,–
CC[C@@]1(O)C(=O)OCc2c1c([N+](=O)[O-])c1n(c2=O)Cc2c-1nc1ccccc1c2/C=N/OCCN(C)C [TH1522],> 1000 nM,–
CC[C@@]1(O)C(=O)OCc2c1c([N+](=O)[O-])c1n(c2=O)Cc2c-1nc1cccc([N+](=O)[O-])c1c2/C=N/OCCN1CCOCC1 [TH1523],830 nM,–
CC[C@@]1(O)C(=O)OCc2c1c([N+](=O)[O-])c1n(c2=O)Cc2c-1nc1ccccc1c2/C=N/OCCN1CCCCC1 [TH1524],> 1000 nM,–
CC[C@@]1(O)C(=O)OCc2c1c([N+](=O)[O-])c1n(c2=O)Cc2c-1nc1cccc([N+](=O)[O-])c1c2/C=N/OCCN1CCCCC1 [TH1525],> 1000 nM,–
CC[C@@]1(O)C(=O)OCc2c1c([N+](=O)[O-])c1n(c2=O)Cc2c-1nc1ccccc1c2CO[N+](=O)[O-] [TH1598],–,"IC50 ([1]; Homo sapiens, NCI-H460, 72 h): 89 nM"
CC[C@@]1(O)C(=O)OCc2c1c(N)c1n(c2=O)Cc2c-1nc1ccccc1c2CO [TH1599],4.3 nM,–
CC[C@@]1(O)C(=O)OCc2c1c([N+](=O)[O-])c1n(c2=O)Cc2c-1nc1ccccc1c2CC[Si](C)(C)C [TH1626],> 1000 nM,–
CC[C@@]1(O)C(=O)OCc2c1c([N+](=O)[O-])c1n(c2=O)Cc2c-1nc1ccccc1c2CC[Si](C)(C)O [TH1627],> 1000 nM,–
CC[C@@]1(O)C(=O)OCc2c1c(N)c1n(c2=O)Cc2c-1nc1ccccc1c2CC[Si](C)(C)O [TH1628],62 nM,–
CC[C@@]1(O)C(=O)OCc2c1c(N)c1n(c2=O)Cc2c-1nc1ccccc1c2CC[Si](C)(C)C [TH1631],7.4 nM,–
CC[C@@]1(O)C(=O)OCc2c1c([N+](=O)[O-])c1n(c2=O)Cc2c-1nc1cccc([N+](=O)[O-])c1c2Br [TH1636],6200 nM,–
CC[C@@]1(O)C(=O)OCc2c1c(N)c1n(c2=O)Cc2c-1nc1ccccc1c2CC(C)(C)C [TH1643],43 nM,–
CC[C@@]1(O)C(=O)OCc2c1c([N+](=O)[O-])c1n(c2=O)Cc2c-1nc1ccccc1c2CC(C)(C)C [TH1644],800 nM,–
CCCc1c2c(nc3ccccc13)-c1c([N+](=O)[O-])c3c(c(=O)n1C2)COC(=O)[C@]3(O)CC [TH1650],685 nM,"TGI (%) ([6]; H460, PO, QD × 5/wk, 2 weeks, 40 mg/Kg): 85%; Max. BWL (%) ([6]; mouse, in vivo, po, 40 mg/kg): 6.7%"
"CC[C@@]1(O)C(=O)OCc2c1c([N+](=O)[O-])c1n(c2=O)Cc2c-1nc1ccccc1c2C=O [TH1762, 7-formyl-14-nitro camptothecin]",7200 nM,–
CC[C@@]1(O)C(=O)OCc2c1c([N+](=O)[O-])c1n(c2=O)Cc2c-1nc1ccccc1c2C#N [TH1766],> 1000 nM,–
CC[C@@]1(O)C(=O)OCc2c1c([N+](=O)[O-])c1n(c2=O)Cc2c-1nc1ccccc1c2/C=N/N1CCOCC1 [TH1767],6000 nM,–
CC[C@@]1(O)C(=O)OCc2c1c([N+](=O)[O-])c1n(c2=O)Cc2c-1nc1ccccc1c2/C=N/NCCO [TH1768],6600 nM,–
CC[C@@]1(O)C(=O)OCc2c1c(N)c1n(c2=O)Cc2c-1nc1ccccc1c2CN [TH1769],330 nM,–
CC[C@@]1(O)C(=O)OCc2c1c([N+](=O)[O-])c1n(c2=O)Cc2c-1nc1ccccc1c2/C=C/N1CCN(C)CC1 [TH1770],9100 nM,–
C=CCO/N=C/c1c2c(nc3ccccc13)-c1c([N+](=O)[O-])c3c(c(=O)n1C2)COC(=O)[C@]3(O)CC [TH1771],> 10000 nM,–
CC[C@@]1(O)C(=O)OCc2c1c(N)c1n(c2=O)Cc2c-1nc1ccccc1c2/C=N/N1CCN(C)CC1 [TH1775],26 nM,–
CC[C@@]1(O)C(=O)OCc2c1c([N+](=O)[O-])c1n(c2=O)Cc2c-1nc1ccccc1c2/C=N/OCC1CO1 (some centres unmarked) [TH1776],3200 nM,–
CC[C@@]1(O)C(=O)OCc2c1c(N)c1n(c2=O)Cc2c-1nc1ccccc1c2/C=N/N1CCOCC1 [TH1777],16 nM,–

SMILES,"IC50 [1, 7]",other results
CC[C@@]1(O)C(=O)OCc2c1c(N)c1n(c2=O)Cc2c-1nc1ccccc1c2/C=N/NCCO [TH1778],270 nM,–
CC[C@@]1(O)C(=O)OCc2c1c([N+](=O)[O-])c1n(c2=O)Cc2c-1nc1ccccc1c2/C=N/N(CCO)C(C)=O [TH1780],28000 nM,–
CCOC(=O)/C=C/c1c2c(nc3ccccc13)-c1c([N+](=O)[O-])c3c(c(=O)n1C2)COC(=O)[C@]3(O)CC [TH1781],28000 nM,–
CC[C@@]1(O)C(=O)OCc2c1c(N)c1n(c2=O)Cc2c-1nc1ccccc1c2/C=N/N(CCO)C(C)=O [TH1783],460 nM,–
CC[C@@]1(O)C(=O)OCc2c1c([N+](=O)[O-])c1n(c2=O)Cc2c-1nc1ccccc1c2/C=C/C(C)=O [TH1784],4900 nM,–
CC[C@@]1(O)C(=O)OCc2c1c(N)c1n(c2=O)Cc2c-1nc1ccccc1c2C(OC)OC [TH1785],39 nM,–
CC[C@@]1(O)C(=O)OCc2c1c([N+](=O)[O-])c1n(c2=O)Cc2c-1nc1ccccc1c2/C=C/C(=O)OC(C)(C)C [TH1786],21000 nM,–
CCOC(=O)CCc1c2c(nc3ccccc13)-c1c(N)c3c(c(=O)n1C2)COC(=O)[C@]3(O)CC [TH1787],12 nM,–
CCOC(=O)/C=C/c1c2c(nc3ccccc13)-c1c(N)c3c(c(=O)n1C2)COC(=O)[C@]3(O)CC [TH1789],31 nM,–
CC[C@@]1(O)C(=O)OCc2c1c(N)c1n(c2=O)Cc2c-1nc1ccccc1c2CCC(=O)OC(C)(C)C [TH1790],46 nM,–
CC[C@@]1(O)C(=O)OCc2c1c([N+](=O)[O-])c1n(c2=O)Cc2c-1nc1ccccc1c2/C=N/N(CCO)C(=O)C(C)(C)C [TH1791],4000 nM,–
CC[C@@]1(O)C(=O)OCc2c1c(N)c1n(c2=O)Cc2c-1nc1ccccc1c2/C=N/N(CCO)C(=O)C(C)(C)C [TH1793],19 nM,–
CC[C@@]1(O)C(=O)OCc2c1c([N+](=O)[O-])c1n(c2=O)Cc2c-1nc1ccccc1c2/C=N/N(CCO)C(=O)C(C)C [TH1794],2300 nM,–
CC[C@@]1(O)C(=O)OCc2c1c(N)c1n(c2=O)Cc2c-1nc1ccccc1c2/C=N/N(CCO)C(=O)C(C)C [TH1796],12 nM,–
CC[C@@]1(O)C(=O)OCc2c1c([N+](=O)[O-])c1n(c2=O)Cc2c-1nc1ccccc1c2/C=N/N(CCO)C(=O)c1ccccc1 [TH1797],40000 nM,–
CC[C@@]1(O)C(=O)OCc2c1c([N+](=O)[O-])c1n(c2=O)Cc2c-1nc1ccccc1c2/C=N/N(CCOS(C)(=O)=O)S(C)(=O)=O [TH1798],2500 nM,–
CC[C@@]1(O)C(=O)OCc2c1c(N)c1n(c2=O)Cc2c-1nc1ccccc1c2/C=N/N(CCOS(C)(=O)=O)S(C)(=O)=O [TH1799],8.1 nM,–
CC[C@@]1(O)C(=O)OCc2c1c(N)c1n(c2=O)Cc2c-1nc1ccccc1c2/C=N/N(CCO)C(=O)c1ccccc1 [TH1800],220 nM,–
CC[C@@]1(O)C(=O)OCc2c1c(N)c1n(c2=O)Cc2c-1nc1ccccc1c2C#N [TH1801],23 nM,–
CC[C@@]1(O)C(=O)OCc2c1c([N+](=O)[O-])c1n(c2=O)Cc2c-1nc1ccccc1c2/C=N/c1ccccc1O [TH1803],3600 nM,–
CC[C@@]1(O)C(=O)OCc2c1c([N+](=O)[O-])c1n(c2=O)Cc2c-1nc1ccccc1c2/C=N/c1ccc(C(C)(C)C)cc1 [TH1804],> 50000 nM,–
CC[C@@]1(O)C(=O)OCc2c1c([N+](=O)[O-])c1n(c2=O)Cc2c-1nc1ccccc1c2/C=N/c1c(F)c(F)c(O)c(F)c1F [TH1805],49000 nM,–
CC[C@@]1(O)C(=O)OCc2c1c(N)c1n(c2=O)Cc2c-1nc1ccccc1c2/C=N/c1ccc(C(C)(C)C)cc1 [TH1809],1400 nM,–
CC[C@@]1(O)C(=O)OCc2c1c(N)c1n(c2=O)Cc2c-1nc1ccccc1c2/C=C/C(=O)OC(C)(C)C [TH1811],14 nM,–
CC[C@@]1(O)C(=O)OCc2c1c([N+](=O)[O-])c1n(c2=O)Cc2c-1nc1ccccc1c2/C=N/N1CCOCOC1 [TH1812],2800 nM,–
CC[C@@]1(O)C(=O)OCc2c1c(N)c1n(c2=O)Cc2c-1nc1ccccc1c2CNCC(C)(C)C [TH1814],15 nM,–
CC[C@@]1(O)C(=O)OCc2c1c(N)c1n(c2=O)Cc2c-1nc1ccccc1c2/C=N/N1CCOCOC1 [TH1816],23 nM,–
